Read-outs that look alike come from different tables or passages of the source. Values belong to the compound of their own block, whether it stands above or below them.
What was measured:
[1] = Preliminary ex-vitro trials: cholesterol solubility in human plasma
Source text: Limonene is commonly thought of as a solvent, having a KB value of 67.

rat aortic rings = assay: Contraction and endothelium dependent relaxation of rat aortic rings; details: mean (±SEM)
Method: Male Sprague-Dawley rats (200-250 g) were euthanized with an overdose of sodium pentobarbital (100 mg/kg, i.p.) and bled. The thoracic aorta was excised and cleaned and rings 3-4 mm in length were cut, taking care not to disturb the endothelium The rings were suspended in tissue baths containing a physiologic salt solution. The solution was bubbled continuously with O2/CO2 (95%/5%), and maintained at 37° C. Contraction activity was recorded on a Grass polygraph. After equilibration for at least 1 h under 1.5 g of tension, tissues were contracted submaximally (approximately 80% of Emax) with 1 μM phenylephrine. […] This concentration of acetylcholine is sufficient to produce maximum endothelium dependent relaxation in intact rings.
Rings were washed with physiological salt solution three times over the next 45 min. prior to the subsequent testing. Beginning with a concentration determined in preliminary experiments to be below the threshold for relaxation, and increased until a relaxation of approximately 15% was achieved (relative to the relaxation induced by 3 μM acetycholine).

human platelets [2] = assay: Human platelet aggregation trial with platelet activating factor (PAF) as aggregating agent; assay type: cell-based
Method: (§1) Human platelet aggregation trials, using PAF and thrombin as aggregating agents, were conducted with gallic acid, catechin and amidated catechin multimers (made according to the process of Example 1). The protocol was as follows: Test compounds (50 μM gallic acid, 100 μM catechin and 3 μM amidated catechin multimer) were dissolved in water and 10 μl of sample was added to 1 ml aliquots of human platelets to give the final estimated vessel content concentration of 3 μM.^1 Next, human platelets at a concentration of 1×10^−7/ml were preincubated for ten minutes at 37° C. with either vehicle (contol) or with 3 μM of the amino-catechin multimer test compound. Then, either platelet activating factor (5×10^−10 μM) or thrombin (0.05 mg/ml) were added and aggregation was monitored over the next 10 minutes in a PACKS-4 Platelet Aggregation Chromogenic Kinetic System (Helena Lab., Beaumont, Tex.). ^1 The molar concentration of total product was 10 μM. […] For molar calculations, the molecular weight of the amino-catechin was presumed to be 300 daltons.

human platelets [3] = assay: Human platelet aggregation trial with thrombin as aggregating agent; assay type: cell-based
Method: as §1

Structure (SMILES): C=C(C)C1CC=C(C)CC1 (centres unmarked) [limonene, 4-isopropenyl-1-methylcyclohexene]
rate of plasma metabolizing excess cholesterol ([1]; minimum rate): ≥ 4 % per hour
increase of the rate of solubility of cholesterol ([1]; over a one hour period): 24%

EC50 (rat aortic rings; rat aortic rings contracted with 1 μM phenylephrine, read-out: EC50 for EDR (endothelium dependent relaxation)): 0.12 ± 0.06 µM
Structure (SMILES): CC(=O)OCC[N+](C)(C)C [acetylcholine]

Structure (SMILES): O.Oc1cc(O)c2c(c1)O[C@H](c1ccc(O)c(O)c1)[C@@H](O)C2 [catechin]
inhibition of human platelet aggregation caused by platelet activating factor (human platelets [2]; 100 μM): no inhibition
inhibition of human platelet aggregation caused by thrombin (human platelets [3]; 100 μM): no inhibition

Structure (SMILES): O=C(O)c1cc(O)c(O)c(O)c1 [gallic acid]
inhibition of human platelet aggregation caused by platelet activating factor (human platelets [2]; 50 μM): no inhibition
inhibition of human platelet aggregation caused by thrombin (human platelets [3]; 50 μM): no inhibition

EC50 (rat aortic rings; rat aortic rings, read-out: EC50 value for phenylephrine (contractile effect)): 0.14 ± 0.02 µM
Structure (SMILES): CNC[C@H](O)c1cccc(O)c1 [phenylephrine]

From patent US6562864B1, “Catechin multimers as therapeutic drug delivery agents” (priority 1999, dated 2003)
